Results taken from US12156880B2, “Heterocyclic RIP1 kinase inhibitors” (Rigel Pharmaceuticals, Inc., priority 2021, dated 2024).

What was measured:
L929 cells = test: L929 cell necroptosis assay (TNFa + zVAD, CellTiter-Glo recovery); assay type: cell-based, murine; parameters: L929-CTG-recovery, L929, TNFa + zVAD (IC50): unit not given here; settings: TNFa 2 ng/mL + zVAD-fmk; for IC50: Mus musculus, L929, 18 h, read-out: L929-CTG-recovery, L929, TNFa + zVAD (IC50)
Protocol: (§1) In this example, U937 and L929 cells were exposed to compounds of the present disclosure and a cell necroptosis assay was conducted to evaluate the compounds' activity against human RIP1 and murine RIP1.
(§2) U937 and L929 cells were obtained from the American Type Culture Collection (Manassas, VA, USA). Both cells were maintained in logarithmic growth phase in complete RPMI 1640 media (Sigma, ST Louis, MO, USA) supplemented with 10% fetal bovine serum (Sigma, ST Louis, MO, USA) at 37° C. with 5% CO2. For necroptosis assay, L929 cells were plated for 18 h in 100 μL/well medium at 10K cells/well in Costar 96-well black clear-bottom plates (Fisher Scientific, Hampton, NH, USA); U937 cells were plated on the day of the assay in 50 μL/well medium containing 60 uM zVAD-fmk (Lonza, Basel, Switzerland) at 50K cells/well. Medium from L929 cells were removed from the 96-well plates and replaced with 50 μL/well new medium containing 40 uM zVAD-fmk. Each compound of the present disclosure evaluated in this example was serially diluted in DMSO from 2.5 mM in 4-fold dilutions, and then diluted 1:125 in complete medium. 50 μL/well 2× of the compound was then added to the cells in the plates. The cells were pre-incubated with the compound for 1 hour at 37° C. with 5% CO2 and before addition of 10 μL/well 11×TNFa (Peprotech, Rocky Hill, NJ, USA) to give a final concentration of 2 ng/mL for TNFa. The relative amount of necroptosis cells was determined by luminescent using a Wallac Victor2 Luminometer (PerkinElmer, Waltham, MA, USA) and a CellTiter-Glo® Luminescent Cell Viability Reagent Assay (Promega, Madison, WI, USA) added per manufacturer instructions after 18 hours of TNFa stimulation at 37° C. with 5% CO2. This example establishes that embodiments of the compounds described herein have unexpectedly potent activity against human RIP1 and murine RIP1, which allows their assessment in in vivo mouse models of disease.

RIPK1 = molecular target: T1, RIPK1 (Homo sapiens, UniProt Q13546); test: RIPK1 ADP-Glo biochemical kinase assay; settings: read-out: RIPK1 ADP-Glo Kinase (IC50)
T1 sequence (Q13546 1-671): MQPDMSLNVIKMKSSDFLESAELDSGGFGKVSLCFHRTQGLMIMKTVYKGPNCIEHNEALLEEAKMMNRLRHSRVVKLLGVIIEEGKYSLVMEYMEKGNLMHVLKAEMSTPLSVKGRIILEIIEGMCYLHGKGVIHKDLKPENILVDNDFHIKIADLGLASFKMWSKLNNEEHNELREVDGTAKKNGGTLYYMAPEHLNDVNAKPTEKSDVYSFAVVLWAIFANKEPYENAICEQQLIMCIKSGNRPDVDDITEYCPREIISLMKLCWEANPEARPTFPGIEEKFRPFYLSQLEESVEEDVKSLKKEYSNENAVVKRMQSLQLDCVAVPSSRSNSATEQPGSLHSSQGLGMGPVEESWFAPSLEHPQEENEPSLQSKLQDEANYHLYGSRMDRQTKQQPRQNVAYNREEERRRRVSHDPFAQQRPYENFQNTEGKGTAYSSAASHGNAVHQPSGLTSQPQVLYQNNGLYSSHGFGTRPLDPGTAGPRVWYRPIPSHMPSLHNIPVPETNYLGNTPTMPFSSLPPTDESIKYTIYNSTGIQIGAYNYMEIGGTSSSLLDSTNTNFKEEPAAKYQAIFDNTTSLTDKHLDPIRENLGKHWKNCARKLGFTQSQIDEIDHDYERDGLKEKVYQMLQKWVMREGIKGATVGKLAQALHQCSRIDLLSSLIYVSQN
Protocol: In this example, compounds of the disclosure were evaluated using a biochemical assay using the ADP-Glo™ technology.
ADP-Glo™ (Promega, Madison, WI, USA) reagents were thawed at ambient temperature. Kinase Detection Reagent was prepared by mixing kinase detection buffer with the lyophilized kinase detection substrate.
A […] stock volume of 5× Reaction Kinase Buffer was made by mixing 1000 μl of 1M MgCl2, 500 μl of 1M Tris-HCL pH7.4, 0.5 mg/ml (25 mg) of BSA, and 3475 μl of distilled H2O. A 3 ml 2× working stock volume of Reaction Kinase Buffer was made containing a final concentration of 100 μM DTT and 4 mM MnCl2.
Components of RIPK1 enzyme (Rigel Pharmaceuticals, South San Francisco, CA, USA) were thawed on ice. Diluted RIPK1 was prepared in 1× Kinase Reaction Buffer (diluted from 2× buffer) to 31 ng/well.
1.0 ul of diluted compound was added to a 384 well plate in duplicate. […] The final reaction volume was 5.0 μl.
The plate was quickly centrifuged and the reaction was incubated at 30° C. for 30 minutes. Adding 5 μl of ADP-Glo™ terminated the reaction. The plate was quickly centrifuged and the reaction was incubated at room temperature for 40 minutes. Kinase Detection Reagent was then added and incubated at room temperature for 30 minutes. The relative light unit (RLU) of kinase reaction was determined by luminescent (Luminescence 0.1 s) using a Wallac Victor2 Luminometer (PerkinElmer, Waltham, MA, USA).

U937 cells = test: U937 cell necroptosis assay (TNFa + zVAD, CellTiter-Glo recovery); assay type: cell-based; settings: Homo sapiens, U-937, 18 h, TNFa 2 ng/mL + zVAD-fmk, read-out: U937 Zvad TNF CTG Recovery, U937, TNFa + zVAD (IC50)
Protocol: as §1, §2

Row | SMILES | IC50 (L929 cells) | IC50 (RIPK1) | IC50 (U937 cells) | L929-CTG-recovery, L929, TNFa + zVAD (IC50) (L929 cells; 18 hours)
1 | CN1C(=O)[C@@H](NC(=O)n2cc(Cc3cccc(C(F)(F)F)n3)cn2)COc2ccc(C#CC(C)(C)O)cc21 [I-9, (S)—N-(7-(3-Hydroxy-3-methylbut-1-yn-1-yl)-5-methyl-4-oxo-2,3,4,5-tetrahydrobenzo[b][1,4]oxazepin-3-yl)-4-((6-(trifluoromethyl)pyridin-2-yl)methyl)-1H-pyrazole-1-carboxamide] | 2690 nM | 64.3 nM | 163 nM | –
2 | Cc1cccc(Cc2ccnc(C(=O)N[C@H]3COc4ccc(C#CC(C)(C)O)cc4N(C)C3=O)c2)n1 [I-11, (S)—N-(7-(3-hydroxy-3-methylbut-1-yn-1-yl)-5-methyl-4-oxo-2,3,4,5-tetrahydrobenzo[b][1,4]oxazepin-3-yl)-4-((6-methylpyridin-2-yl)methyl)picolinamide] | 7430 nM | 120 nM | 126 nM | –
3 | Cc1cccc(Cc2ccnc(C(=O)N[C@H]3COc4ccc(C#CC5(O)COC5)cc4N(C)C3=O)c2)n1 [I-12, (S)—N-(7-((3-hydroxyoxetan-3-yl)ethynyl)-5-methyl-4-oxo-2,3,4,5-tetrahydrobenzo[b][1,4]oxazepin-3-yl)-4-((6-methylpyridin-2-yl)methyl)picolinamide] | 3470 nM | 25.2 nM | 73.4 nM | –
4 | CN1C(=O)[C@@H](NC(=O)c2cc(Cc3cccc(F)n3)ccn2)COc2ccc(C#CC(C)(C)O)cc21 [I-13, (S)-4-((6-fluoropyridin-2-yl)methyl)-N-(7-(3-hydroxy-3-methylbut-1-yn-1-yl)-5-methyl-4-oxo-2,3,4,5-tetrahydrobenzo[b][1,4]oxazepin-3-yl)picolinamide] | 1310 nM | 21.2 nM | 42 nM | –
5 | CN1C(=O)[C@@H](NC(=O)n2cc(Cc3cccnc3)cn2)COc2ccc(C#CC(C)(C)O)cc21 [I-14, (S)—N-(7-(3-Hydroxy-3-methylbut-1-yn-1-yl)-5-methyl-4-oxo-2,3,4,5-tetrahydrobenzo[b][1,4]oxazepin-3-yl)-4-(pyridin-3-ylmethyl)-1H-pyrazole-1-carboxamide] | 1170 nM | 17.6 nM | 14.3 nM | –
6 | Cc1ccc(Cc2cnn(C(=O)N[C@H]3COc4ccc(C#CC(C)(C)O)cc4N(C)C3=O)c2)cn1 [I-15, (S)—N-(7-(3-Hydroxy-3-methylbut-1-yn-1-yl)-5-methyl-4-oxo-2,3,4,5-tetrahydrobenzo[b][1,4]oxazepin-3-yl)-4-((6-methylpyridin-3-yl)methyl)-1H-pyrazole-1-carboxamide] | 1680 nM | 19.4 nM | 27.5 nM | –
7 | CN1C(=O)[C@@H](NC(=O)n2cc(Cc3ccc(F)nc3)cn2)COc2ccc(C#CC(C)(C)O)cc21 [I-16, (S)-4-((6-Fluoropyridin-3-yl)methyl)-N-(7-(3-hydroxy-3-methylbut-1-yn-1-yl)-5-methyl-4-oxo-2,3,4,5-tetrahydrobenzo[b][1,4]oxazepin-3-yl)-1H-pyrazole-1-carboxamide] | 2390 nM | 37.9 nM | 17.2 nM | –
8 | Cc1ccc(Cc2cnn(C(=O)N[C@H]3COc4ccc(Br)cc4N(C)C3=O)c2)cn1 [I-23, (S)—N-(7-Bromo-5-methyl-4-oxo-2,3,4,5-tetrahydrobenzo[b][1,4]oxazepin-3-yl)-4-((6-methylpyridin-3-yl)methyl)-1H-pyrazole-1-carboxamide] | – | 25.7 nM | 81.8 nM | 5000
9 | CN1C(=O)[C@@H](NC(=O)c2cc(Cc3cccnc3F)ccn2)COc2ccc(C#CC3(O)COC3)cc21 [I-26, (S)-4-((2-fluoropyridin-3-yl)methyl)-N-(7-((3-hydroxyoxetan-3-yl)ethynyl)-5-methyl-4-oxo-2,3,4,5-tetrahydrobenzo[b][1,4]oxazepin-3-yl)picolinamide] | 407 nM | 35.5 nM | 5.3 nM | –
10 | CN1C(=O)[C@@H](NC(=O)c2cc(Cc3cccnc3F)ccn2)COc2ccc(C#CC(C)(C)O)cc21 [I-27, (S)-4-((2-fluoropyridin-3-yl)methyl)-N-(7-(3-hydroxy-3-methylbut-1-yn-1-yl)-5-methyl-4-oxo-2,3,4,5-tetrahydrobenzo[b][1,4]oxazepin-3-yl)picolinamide] | 622 nM | 19.3 nM | 9.7 nM | –
11 | CN1C(=O)[C@@H](NC(=O)n2cc(Cc3ccncc3)cn2)COc2ccc(C#CC(C)(C)O)cc21 [I-29, (S)—N-(7-(3-Hydroxy-3-methylbut-1-yn-1-yl)-5-methyl-4-oxo-2,3,4,5-tetrahydrobenzo[b][1,4]oxazepin-3-yl)-4-(pyridin-4-ylmethyl)-1H-pyrazole-1-carboxamide] | 1720 nM | 69.4 nM | 47.2 nM | –
12 | CN1C(=O)[C@@H](NC(=O)n2cc(Cc3cccc(F)n3)cn2)COc2ccc(C#CC3(O)COC3)cc21 [I-32, (S)-4-((6-Fluoropyridin-2-yl)methyl)-N-(7-((3-hydroxyoxetan-3-yl)ethynyl)-5-methyl-4-oxo-2,3,4,5-tetrahydrobenzo[b][1,4]oxazepin-3-yl)-1H-pyrazole-1-carboxamide] | 682 nM | 16.2 nM | 16.3 nM | –
13 | CN1C(=O)[C@@H](NC(=O)n2cc(Cc3cccc(F)n3)cn2)COc2ccc(C#CC3(O)CCOCC3)cc21 [I-33, (S)-4-((6-Fluoropyridin-2-yl)methyl)-N-(7-((4-hydroxytetrahydro-2H-pyran-4-yl)ethynyl)-5-methyl-4-oxo-2,3,4,5-tetrahydrobenzo[b][1,4]oxazepin-3-yl)-1H-pyrazole-1-carboxamide] | 1130 nM | 17.1 nM | 11.6 nM | –
14 | CN1C(=O)[C@@H](NC(=O)n2cc(Cc3cccc(F)n3)cn2)COc2ccc(C#CC3CCOCC3)cc21 [I-34, (S)-4-((6-Fluoropyridin-2-yl)methyl)-N-(5-methyl-4-oxo-7-((tetrahydro-2H-pyran-4-yl)ethynyl)-2,3,4,5-tetrahydrobenzo[b][1,4]oxazepin-3-yl)-1H-pyrazole-1-carboxamide] | 68.1 nM | 15.3 nM | 1.3 nM | –
15 | CN1C(=O)[C@@H](NC(=O)n2cc(Cc3cccc(F)n3)cn2)CCc2ccc(Br)cc21 [I-35, (S)—N-(8-Bromo-1-methyl-2-oxo-2,3,4,5-tetrahydro-1H-benzo[b]azepin-3-yl)-4-((6-fluoropyridin-2-yl)methyl)-1H-pyrazole-1-carboxamide] | 6860 nM | 19.4 nM | 70 nM | –
